According to PMC2630426 (Journal of medicinal chemistry, 2008):
Where two headings read alike, the source gives them in different places.

Legend:
μ opioid receptor [1] = biological target: T1, μ opioid receptor (Rattus norvegicus, UniProt P33535); test: rat brain membrane binding assay, μ opioid receptor; details: based on the receptor binding constants (Ki values)
κ opioid receptor [2] = biological target: T2, κ opioid receptor (Cavia porcellus, UniProt P41144); test: GPI assay, κ opioid antagonist potency; format: biochemical, guinea pig
T2 sequence (P41144 whole entry): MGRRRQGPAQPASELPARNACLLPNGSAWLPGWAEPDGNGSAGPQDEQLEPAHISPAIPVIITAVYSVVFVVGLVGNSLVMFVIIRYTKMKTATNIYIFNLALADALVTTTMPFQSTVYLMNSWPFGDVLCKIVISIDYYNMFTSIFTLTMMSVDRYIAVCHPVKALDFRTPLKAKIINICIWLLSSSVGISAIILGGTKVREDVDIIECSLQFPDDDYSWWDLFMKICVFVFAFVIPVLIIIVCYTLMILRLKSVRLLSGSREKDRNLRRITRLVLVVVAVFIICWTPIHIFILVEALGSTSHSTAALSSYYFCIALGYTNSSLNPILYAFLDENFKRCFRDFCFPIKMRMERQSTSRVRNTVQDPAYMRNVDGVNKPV

δ opioid receptor [3] = biological target: T3, δ opioid receptor (Mus musculus, UniProt P32300); test: MVD assay, δ opioid antagonist potency; format: biochemical
T3 sequence (P32300 whole entry): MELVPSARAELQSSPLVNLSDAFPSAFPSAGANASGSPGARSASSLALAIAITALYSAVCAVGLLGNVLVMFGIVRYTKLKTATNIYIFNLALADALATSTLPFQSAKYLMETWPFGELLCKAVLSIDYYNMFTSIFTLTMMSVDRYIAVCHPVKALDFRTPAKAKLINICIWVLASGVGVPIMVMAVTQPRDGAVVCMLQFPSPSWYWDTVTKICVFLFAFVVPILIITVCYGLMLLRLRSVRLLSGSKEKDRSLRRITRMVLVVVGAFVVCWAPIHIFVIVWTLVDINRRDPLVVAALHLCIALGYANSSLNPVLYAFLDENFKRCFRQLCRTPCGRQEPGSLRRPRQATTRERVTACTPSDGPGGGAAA

δ opioid receptor [4] = biological target: T3, δ opioid receptor; details: cited from earlier work; for Ke^δ: MVD, DPDPE as δ agonist
κ opioid receptor [5] = biological target: T2, κ opioid receptor; details: GPI, U50,488 as κ agonist, cited from earlier work
μ opioid receptor [6] = biological target: T1, μ opioid receptor; details: cited from earlier work
μ opioid receptor [7] = details: GPI, TAPP as μ agonist, cited from earlier work
κ opioid receptor [8] = biological target: T2, κ opioid receptor; details: read-out: Ki^κ, opioid receptor binding, cited from earlier work
δ opioid receptor [9] = biological target: T4, δ opioid receptor (Rattus norvegicus, UniProt P33533); details: ref Schiller et al. 4, cited from earlier work
T4 sequence (P33533 whole entry): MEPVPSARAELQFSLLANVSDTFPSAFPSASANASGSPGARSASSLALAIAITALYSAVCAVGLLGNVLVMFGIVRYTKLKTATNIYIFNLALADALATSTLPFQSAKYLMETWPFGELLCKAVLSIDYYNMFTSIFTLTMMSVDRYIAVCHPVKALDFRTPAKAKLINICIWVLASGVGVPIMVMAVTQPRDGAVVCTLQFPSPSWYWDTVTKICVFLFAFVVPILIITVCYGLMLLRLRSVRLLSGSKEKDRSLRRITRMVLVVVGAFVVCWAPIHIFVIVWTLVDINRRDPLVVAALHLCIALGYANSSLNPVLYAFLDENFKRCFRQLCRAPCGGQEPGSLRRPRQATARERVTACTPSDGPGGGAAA

δ opioid receptor [10] = biological target: T4, δ opioid receptor; details: read-out: Ki^δ; cited from earlier work
μ opioid receptor [11] = details: cited from earlier work; for Ki: read-out: Ki^μ
δ opioid receptor [12] = biological target: T4, δ opioid receptor; details: cited from earlier work
μ opioid receptor [13] = details: cited from earlier work
[14] = endomorphin-derived μ antagonists

T1 sequence (P33535 whole entry): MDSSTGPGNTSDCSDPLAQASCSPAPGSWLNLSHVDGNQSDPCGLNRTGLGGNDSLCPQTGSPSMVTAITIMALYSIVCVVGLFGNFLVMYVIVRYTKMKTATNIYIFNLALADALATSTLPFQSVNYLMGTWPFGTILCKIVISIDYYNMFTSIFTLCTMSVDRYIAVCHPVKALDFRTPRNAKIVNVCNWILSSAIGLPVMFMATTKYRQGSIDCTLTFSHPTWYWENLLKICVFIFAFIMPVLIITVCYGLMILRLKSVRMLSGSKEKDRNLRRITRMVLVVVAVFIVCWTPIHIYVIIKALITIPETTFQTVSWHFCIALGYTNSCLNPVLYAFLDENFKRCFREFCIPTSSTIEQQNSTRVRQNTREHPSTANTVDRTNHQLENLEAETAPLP

## CC[C@H](C)[C@H](NC(=O)[C@H](CCCNC(=N)N)NC(=O)[C@H](CCCNC(=N)N)NC(=O)[C@H](CC(C)C)NC(=O)[C@H](Cc1ccccc1)NC(=O)CNC(=O)CNC(=O)[C@@H](C)Cc1c(C)cc(C(N)=O)cc1C)C(=O)N[C@@H](CCCNC(=N)N)C(=O)N1CCC[C@H]1C(=O)N[C@@H](CCCCN)C(N)=O [compound 5, [(2S)-Mdcp^1]Dyn A(1-11)-NH2]
μ opioid receptor [1]
  Ki ratio μ/δ/κ: 1/1/1
κ opioid receptor [2]
  Kb: 5.96 ± 0.8 nM
δ opioid receptor [3]
  Kb: 843 ± 88 nM

## (2S)-Mdp-c[D-Cys-Gly-Phe(pNO2)-D-Cys]NH2 (disulfide) [compound 2]
δ opioid receptor [4]; ref Schiller et al. 2
  Ke^δ: 3.48 ± 0.28 nM
κ opioid receptor [5]; ref Schiller et al. 2
  Ke^κ: 6.41 ± 0.18 nM
μ opioid receptor [6]; based on Ki values, ref Schiller et al. 2
  Ki ratio μ/δ/κ: 1/2/42
μ opioid receptor [7]; ref Schiller et al. 2
  Ke^μ: 1.48 ± 0.18 nM
κ opioid receptor [8]; ref Schiller et al. 2
  Ki: 92.8 ± 5.3 nM

## (2S)-Mdp-c[D-Pen-Gly-Phe(pF)-Pen]-Phe-OH (disulfide) (YCGFCF) [compound 4]
δ opioid receptor [9]; read-out: Ki^δ, opioid receptor binding
  Ki: 2.32 ± 0.4 nM
μ opioid receptor [6]; read-out: Ki^μ, opioid receptor binding, ref Schiller et al. 4
  Ki: 406 ± 21 nM
κ opioid receptor [8]; ref Schiller et al. 4
  Ki: 3710 ± 400 nM

## (2S)-Mdp-c[D-Pen-Gly-Phe(pF)-Pen]-Phe-OH (disulfide) [compound 4]
δ opioid receptor [4]; ref Schiller et al. 4
  Ke^δ: 0.785 ± 0.135 nM
δ opioid receptor [4]; from Ke values of GPI and MVD assays, ref Schiller et al. 4
  Ke ratio δ/μ/κ: 1/851/5570
δ opioid receptor [9]; based on Ki values
  Ki ratio δ/μ/κ: 1/175/1600
κ opioid receptor [5]; ref Schiller et al. 4
  Ke^κ: 4370 ± 860 nM
μ opioid receptor [7]; ref Schiller et al. 4
  Ke^μ: 668 ± 40 nM

## Dhp-c[N^ε,N^β-carbonyl-D-Lys^2,Dap^5]enkephalinamide
δ opioid receptor [10]
  Ki: 273 nM
μ opioid receptor [11]
  Ki: 15.5 nM

## H-D-Phe-c[Cys-Tyr-D-Trp-Orn-Thr-Pen]-Thr-NH2 [CTOP]
μ opioid receptor [11]; read-out: IC50^μ, somatostatin-derived μ opioid antagonist
  IC50: 2.8 nM

## H-Dmt-Sar-Phe-D-Nal-NH2
δ opioid receptor [12]
  Ke^δ: 305 nM
μ opioid receptor [13]
  Ke^μ: 2.34 nM

## [(2S)-Mdp^1]Dyn A(1-11)-NH2 [compound 6]
δ opioid receptor [4]; ref Lu et al. 3
  Ke^δ: 3320 ± 520 nM
κ opioid receptor [5]; ref Lu et al. 3
  Ke^κ: 3.92 ± 0.65 nM
μ opioid receptor [7]; ref Lu et al. 3
  Ke^μ: 925 ± 94 nM

## [Dmt^1,D-2-Nal^4]endomorphin-1 [antanal-1]
μ opioid receptor [11]; [14]
  Ki: 2.38 nM

## [Dmt^1,D-2-Nal^4]endomorphin-2 [antanal-2]
μ opioid receptor [11]; [14]
  Ki: 1.52 nM
